From PubChem BioAssay (NCI)
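Dose response: 5 concentrations. Exposure: 48 h. Format: 96-well plates. Endpoint: linear interpolation; highest concentration if not reached. At the GI50, growth is halved. At the TGI there is no net growth.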

How the values were obtained:
Assay in all cases: DTP human tumour cell line panel, 48 h
[1] = system: PC-3 prostate
[2] = system: COLO 205 colon
[3] = system: HT29 colon
[4] = system: SK-MEL-2 melanoma
[5] = system: TK-10 renal
[6] = system: HCT-116 colon
[7] = system: T-47D breast
[8] = system: A498 renal
[9] = system: CAKI-1 renal
[10] = system: HCT-15 colon
[11] = system: 786-0 renal
[12] = system: OVCAR-4 ovarian
[13] = system: HCC-2998 colon
[14] = system: SNB-19 CNS
[15] = system: NCI-H226 lung
[16] = system: ACHN renal
[17] = system: SNB-75 CNS
[18] = system: IGROV1 ovarian
[19] = system: MOLT-4 leukemia
[20] = system: MDA-MB-231 breast
[21] = system: SW-620 colon
[22] = system: SF-539 CNS
[23] = system: M14 melanoma
[24] = system: NCI-H522 lung
[25] = system: CCRF-CEM leukemia
[26] = system: HS 578T breast
[27] = system: HOP-62 NSCLC
[28] = system: SK-MEL-5 melanoma
[29] = system: A549 NSCLC
[30] = system: SK-MEL-28 melanoma
[31] = system: SF-295 CNS
[32] = system: HL-60(TB) leukemia
[33] = system: NCI-H460 lung
[34] = system: MDA-MB-435
[35] = system: HOP-92 NSCLC
[36] = system: SK-OV-3 ovarian
[37] = system: U251 CNS
[38] = system: RXF 393 renal
[39] = system: KM12 colon
[40] = system: UACC-62 melanoma
[41] = system: SR leukemia
[42] = system: BT-549 breast
[43] = system: NCI/ADR-RES ovarian
[44] = system: NCI-H23 lung
[45] = system: UO-31 renal
[46] = system: LOX IMVI melanoma
[47] = system: SF-268 CNS
[48] = system: UACC-257 melanoma
[49] = system: OVCAR-5 ovarian
[50] = system: SN12C renal
[51] = system: MCF7 breast
[52] = system: RPMI-8226 leukemia
[53] = system: DU-145 prostate
[54] = system: OVCAR-8 ovarian
[55] = system: MALME-3M melanoma
[56] = system: OVCAR-3 ovarian
[57] = system: EKVX NSCLC

For `O=S(=O)(NCCCNc1nccc(-c2c(-c3ccc(F)cc3)nc3sccn23)n1)c1ccc2ccccc2c1`, the GI50 [1] was 4.36 µM, the TGI [1] was > 100 µM and the GI50 [2] was 2.22 µM. For the same molecule, the TGI [2] was 4.81 µM, the GI50 [3] was 2.4 µM and the TGI [3] was 7.58 µM. For the same molecule, the GI50 [4] was 6.63 µM, the TGI [4] was > 100 µM and the GI50 [5] was 7.54 µM. For the same molecule, the TGI [5] was > 100 µM, the GI50 [6] was 4.41 µM and the TGI [6] was > 100 µM. For the same molecule, the GI50 [7] was 2.85 µM, the TGI [7] was > 100 µM and the GI50 [8] was 3.01 µM. For the same molecule, the TGI [8] was > 100 µM, the GI50 [9] was 5.47 µM and the TGI [9] was > 100 µM. For the same molecule, the GI50 [10] was 3.26 µM, the TGI [10] was > 100 µM and the GI50 [11] was 6.19 µM. The TGI [11] was > 100 µM, the GI50 [12] was 5.99 µM and the TGI [12] was > 100 µM. It also gave a GI50 [13] of 3.37 µM, a TGI [13] of 9.61 µM and a GI50 [14] of 8.53 µM. The TGI [14] was > 100 µM, the GI50 [15] was 5.77 µM and the TGI [15] was > 100 µM. The GI50 [16] was 3.42 µM, the TGI [16] was > 100 µM and the GI50 [17] was 5.22 µM. The TGI [17] was > 100 µM, the GI50 [18] was 5.37 µM and the TGI [18] was > 100 µM. The GI50 [19] was 4.52 µM, the TGI [19] was > 100 µM and the GI50 [20] was 3.8 µM. For the same molecule, the TGI [20] was > 100 µM, the GI50 [21] was 6.4 µM and the TGI [21] was > 100 µM. For the same molecule, the GI50 [22] was > 100 µM, the TGI [22] was > 100 µM and the GI50 [23] was 6.53 µM. The TGI [23] was > 100 µM, the GI50 [24] was 5.66 µM and the TGI [24] was > 100 µM. The GI50 [25] was 3.13 µM, the TGI [25] was > 100 µM and the GI50 [26] was 9.13 µM. The TGI [26] was > 100 µM, the GI50 [27] was > 100 µM and the TGI [27] was > 100 µM. For the same molecule, the GI50 [28] was 4.17 µM, the TGI [28] was > 100 µM and the GI50 [29] was 4.43 µM. The TGI [29] was > 100 µM, the GI50 [30] was > 100 µM and the TGI [30] was > 100 µM. The GI50 [31] was 6.86 µM, the TGI [31] was > 100 µM and the GI50 [32] was 4.25 µM. For the same molecule, the TGI [32] was > 100 µM, the GI50 [33] was 3.74 µM and the TGI [33] was > 100 µM. The GI50 [34] was 3.67 µM, the TGI [34] was > 100 µM and the GI50 [35] was 6.36 µM. The TGI [35] was > 100 µM, the GI50 [36] was > 100 µM and the TGI [36] was > 100 µM. For the same molecule, the GI50 [37] was 4.87 µM, the TGI [37] was > 100 µM and the GI50 [38] was 5.21 µM. For the same molecule, the TGI [38] was > 100 µM, the GI50 [39] was 2.86 µM and the TGI [39] was 9.96 µM. For the same molecule, the GI50 [40] was 4.6 µM, the TGI [40] was > 100 µM and the GI50 [41] was 4.01 µM. The TGI [41] was > 100 µM, the GI50 [42] was 4.34 µM and the TGI [42] was > 100 µM. The GI50 [43] was 3.89 µM, the TGI [43] was > 100 µM and the GI50 [44] was 15.1 µM. For the same molecule, the TGI [44] was > 100 µM, the GI50 [45] was 3.58 µM and the TGI [45] was > 100 µM. The GI50 [46] was 4.35 µM, the TGI [46] was > 100 µM and the GI50 [47] was 6.46 µM. The TGI [47] was > 100 µM, the GI50 [48] was > 100 µM and the TGI [48] was > 100 µM. The GI50 [49] was > 100 µM, the TGI [49] was > 100 µM and the GI50 [50] was 4.69 µM. The TGI [50] was > 100 µM, the GI50 [51] was 3.71 µM and the TGI [51] was > 100 µM. The GI50 [52] was 4.05 µM, the TGI [52] was > 100 µM and the GI50 [53] was 5.53 µM. For the same molecule, the TGI [53] was > 100 µM, the GI50 [54] was 4.63 µM and the TGI [54] was > 100 µM.

Molecule `C=C1C(=O)O[C@H]2[C@H]1CC/C(COC(=O)NCC(C)c1ccc(CC(C)C)cc1)=C\CC[C@@]1(C)O[C@@H]21` (stereo not given in full) has a GI50 [1] of 0.691 µM, a TGI [1] of 1.76 µM and a GI50 [2] of 1.3 µM. It also gave a TGI [2] of 5.3 µM, a GI50 [3] of 1.03 µM and a TGI [3] of 2.52 µM. For the same molecule, the GI50 [4] was 3.86 µM, the TGI [4] was 8.48 µM and the GI50 [55] was 0.926 µM. The TGI [55] was 2.89 µM, the GI50 [5] was 3.34 µM and the TGI [5] was 7.23 µM. It also gave a GI50 [6] of 0.641 µM, a TGI [6] of 1.32 µM and a GI50 [7] of 2.2 µM. For the same molecule, the TGI [7] was 7.83 µM, the GI50 [8] was 4.36 µM and the TGI [8] was 8.68 µM. It also gave a GI50 [9] of 2.32 µM, a TGI [9] of 6.68 µM and a GI50 [10] of 0.595 µM. The TGI [10] was 1.27 µM, the GI50 [11] was 0.582 µM and the TGI [11] was 1.1 µM. The GI50 [12] was 2.31 µM, the TGI [12] was 6.59 µM and the GI50 [13] was 2.17 µM. The TGI [13] was 6.72 µM, the GI50 [14] was 3.82 µM and the TGI [14] was 7.95 µM. For the same molecule, the GI50 [15] was 1.05 µM, the TGI [15] was 4.59 µM and the GI50 [16] was 0.623 µM. The TGI [16] was 1.32 µM, the GI50 [17] was 1.21 µM and the TGI [17] was 5.48 µM. For the same molecule, the GI50 [18] was 0.551 µM, the TGI [18] was 1.18 µM and the GI50 [19] was 0.974 µM. It also gave a TGI [19] of 3.05 µM, a GI50 [20] of 0.612 µM and a TGI [20] of 1.27 µM. The GI50 [21] was 0.751 µM, the TGI [21] was 1.79 µM and the GI50 [56] was 0.625 µM. For the same molecule, the TGI [56] was 1.27 µM, the GI50 [22] was 3.71 µM and the TGI [22] was 7.71 µM. For the same molecule, the GI50 [24] was 0.661 µM, the TGI [24] was 1.77 µM and the GI50 [25] was 0.644 µM. The TGI [25] was 3.61 µM, the GI50 [26] was 1.53 µM and the TGI [26] was 15 µM. The GI50 [27] was 5.29 µM, the TGI [27] was 10.5 µM and the GI50 [28] was 3.97 µM. The TGI [28] was 8.07 µM, the GI50 [29] was 6.46 µM and the TGI [29] was 11.8 µM. The GI50 [30] was 1.6 µM, the TGI [30] was 5.52 µM and the GI50 [31] was 4.44 µM. It also gave a TGI [31] of 8.69 µM, a GI50 [32] of 0.786 µM and a TGI [32] of 2.83 µM. It also gave a GI50 [33] of 4.69 µM, a TGI [33] of 10 µM and a GI50 [34] of 1.24 µM. It also gave a TGI [34] of 4.86 µM, a GI50 [35] of 0.545 µM and a TGI [35] of 1.5 µM. For the same molecule, the GI50 [36] was 5.94 µM, the TGI [36] was 11 µM and the GI50 [37] was 4.32 µM. The TGI [37] was 8.7 µM, the GI50 [38] was 0.559 µM and the TGI [38] was 1.17 µM. For the same molecule, the GI50 [39] was 3.53 µM, the TGI [39] was 8.24 µM and the GI50 [40] was 0.751 µM. It also gave a TGI [40] of 2.35 µM, a GI50 [41] of 0.678 µM and a TGI [41] of 3.6 µM. The GI50 [42] was 0.775 µM, the TGI [42] was 2.25 µM and the GI50 [43] was 3.54 µM. The TGI [43] was 10.1 µM, the GI50 [44] was 3.69 µM and the TGI [44] was 8.69 µM. It also gave a GI50 [45] of 0.474 µM, a TGI [45] of 0.909 µM and a GI50 [57] of 3.85 µM. The TGI [57] was 7.95 µM, the GI50 [46] was 0.506 µM and the TGI [46] was 1 µM. For the same molecule, the GI50 [47] was 1.82 µM, the TGI [47] was 6.59 µM and the GI50 [48] was 5.01 µM. It also gave a TGI [48] of 9.89 µM, a GI50 [49] of 3.56 µM and a TGI [49] of 7.73 µM. For the same molecule, the GI50 [50] was 1.06 µM, the TGI [50] was 4.14 µM and the GI50 [51] was 0.902 µM. The TGI [51] was 4.18 µM, the GI50 [52] was 0.681 µM and the TGI [52] was 1.9 µM. It also gave a GI50 [53] of 2.93 µM, a TGI [53] of 6.95 µM and a GI50 [54] of 1.94 µM. For the same molecule, the TGI [54] was 6.87 µM.
